Assay results published in patent publication US20190010547A1 (Medizinische Universität Innsbruck, priority 2015, published 2019).
Entries after “also recorded” stand apart in the source; their conditions may differ.

What was measured:
[1] = system: serum miR-122; conditions: ASCOT participants (n=155), atorvastatin 10 mg/day vs placebo, baseline vs 1 year
[2] = system: serum miR-122; assay: Statin treatment of mice: serum miR-122; conditions: C57BI/6 mice, 20 mg/kg atorvastatin intraperitoneally once a day for five days
[3] = ASCOT participants, atorvastatin 10 mg/day vs placebo, baseline vs 1 year
[4] = system: genes implicated in cholesterol and lipid metabolism (ACC1, CTP1, FAS, SCD1, MTTP, SREBP1); assay: AntagomiR treatment of mice: liver expression of genes implicated in cholesterol and lipid metabolism (qRT-PCR); assay type: in vivo; conditions: mouse liver mRNA, antagomiR-122 65 mg/kg i.p. x3 days, day 7
Method: (§1) Liver and serum samples were harvested for analysis.
(§2) Total RNA was isolated from liver and hepatocyte samples using TRIzol reagent (Invitrogen) according to the manufacturer's protocol. For mRNA quantification, cDNA was synthesized using iScript RT Supermix (Bio-Rad), following the manufacturer's protocol. qRT-PCR analysis was performed in triplicate using iQ SYBR green Supermix (BioRad) on an iCycler Real-Time Detection System (Eppendorf). The mRNA level was normalized to GAPDH or 18S as a house keeping gene (see primer sequence in Table 2). For miRNA quantification, total RNA was reverse transcribed using the miScript II RT Kit (Qiagen). […] For mouse tissues, total liver RNA from WT mice fed a HFD were isolated using the Bullet Blender Homogenizer (Next Advance) in TRIzol. 1 μg of total RNA was reverse transcribed and gene/miRNA expression assessed as above.

[5] = system: miR-122; assay: AntagomiR treatment of mice: liver miR-122 by Northern blotting and quantitative PCR; assay type: in vivo; conditions: mouse liver
Method: as §1
MiRNA expression was assessed by Northern blot analysis as previously described (Suárez, Circ Res 2007, 100: 1164-73). Briefly, total RNA (5 μg) was separated on a 15% acrylamide TBE 8M urea gel and blotted onto a Hybond N+ nylon filter (Amersham Biosciences). […] ATP and […] polynucleotide kinase (New England Biolabs) to generate high-specific activity probes. Hybridization was carried out according to the ExpressHyb (Clontech) protocol. Following overnight membrane hybridization with specific radiolabeled probes, membranes were washed once for 30 min at 42° C. in 4×SSC/0:5% SDS and subjected to autoradiography. Blots were re-probed for 5S rRNA to control for equal loading: 5′-[…]-3′
Total RNA was isolated from liver and hepatocyte samples using TRIzol reagent (Invitrogen) according to the manufacturer's protocol. For mRNA quantification, cDNA was synthesized using iScript RT Supermix (Bio-Rad), following the manufacturer's protocol. qRT-PCR analysis was performed in triplicate using iQ SYBR green Supermix (BioRad) on an iCycler Real-Time Detection System (Eppendorf). […] For miRNA quantification, total RNA was reverse transcribed using the miScript II RT Kit (Qiagen). […] 1 μg of total RNA was reverse transcribed and gene/miRNA expression assessed as above.

[6] = AntagomiR treatment of mice: serum cholesterol; assay type: in vivo; conditions: antagomiR-122 vs control antagomiRs, 65 mg/kg i.p. x3 days, day 7
Method: as §1
Blood samples were collected by retro-orbital venous plexus puncture after a 12 h overnight fast for lipid analysis. Plasma was separated by centrifugation and stored at 4° C. Total and HDL cholesterol in each sample was enzymatically measured using the T-Cholesterol and HDL-C Assay Kits (Wako Diagnostics).

[7] = system: miR-33; assay: AntagomiR treatment of mice: hepatic miR-33 expression; assay type: in vivo; conditions: mouse liver, antagomiR-122 vs control antagomiRs, 65 mg/kg i.p. x3 days, day 7
Method: as §1, §2

[8] = system: hepatitis C virus; conditions: 36 patients with chronic hepatitis C genotype 1 infection, Phase 2a (Janssen, N Engl J Med 2013); cited from earlier work

With `CC(C)c1c(C(=O)Nc2ccccc2)c(-c2ccccc2)c(-c2ccc(F)cc2)n1CC[C@@H](O)C[C@@H](O)CC(=O)O` [atorvastatin] as the compound, how does the “serum miR-122 levels” value [1] read?
The value was “reduced circulating miR-122 levels; also recorded: concordant reduction”.

What about the “serum miR-122” value [2] of the same compound?
The value was “reduction of miR-122; also recorded: reduced serum miR-122”.

What about the total cholesterol [3] of the same compound?
Its total cholesterol is “concordant reduction”.

Which “expression of genes implicated in lipid metabolism (de novo lipogenesis and lipoprotein assembly)” value [4] does the source give for “C*A*AACACCAUUGUCACACU*C*C*A*Chol*-T [antagomiR-122]” here?
Its value is “down-regulation of enzymes implicated in lipid metabolism”.

And the “liver miR-122 expression” value ([5]; Northern blotting / qPCR, 65 mg/kg i.p. on three consecutive days, day 7, n=5 per group, 65 mg/kg)?
The value was “almost complete inhibition of miR-122 expression; also recorded: reduction of liver miR-122”.

What about the “relative amount of miR-122 in antagomiR-122 group” value ([5]; quantitative PCR, 65 mg/kg intraperitoneally on three consecutive days, sacrificed at day 7, vs control antagomiRs, mean (standard deviation)) of the same compound?
The value was 0.13%+/−0.06%.

What about the serum cholesterol concentration [6] of the same compound?
Its serum cholesterol concentration is “lower cholesterol levels; also recorded: reduction in serum cholesterol concentration”.

And the “hepatic expression of miR-33” value [7]?
Its value is “attenuated; also recorded: reduction of miR-33”.

Which “hepatitis C virus RNA levels” value [8] does the source give for miravirsen here?
Its value is “reduced hepatitis C virus RNA levels in a dose-dependent manner”.
